In patent publication US11325899B2, “Benzofurane and benzothiophene derivatives as PGE2 receptor modulators” (IDORSIA PHARMACEUTICALS LTD, priority 2017, dated 2022):

Columns and labels:
Assay type in all cases: cell-based
[1] = biological target: T1, EP2 receptor (Homo sapiens, UniProt P43116); assay: hEP2 cAMP assay (SF295 glioblastoma cells, HTRF cAMP, PGE2 stimulation); conditions: antagonistic activity
T1 construct: SF295 glioblastoma cells express high endogenous EP2 and no EP4; host or cells: SF295 glioblastoma cells
T1 sequence (P43116 whole entry): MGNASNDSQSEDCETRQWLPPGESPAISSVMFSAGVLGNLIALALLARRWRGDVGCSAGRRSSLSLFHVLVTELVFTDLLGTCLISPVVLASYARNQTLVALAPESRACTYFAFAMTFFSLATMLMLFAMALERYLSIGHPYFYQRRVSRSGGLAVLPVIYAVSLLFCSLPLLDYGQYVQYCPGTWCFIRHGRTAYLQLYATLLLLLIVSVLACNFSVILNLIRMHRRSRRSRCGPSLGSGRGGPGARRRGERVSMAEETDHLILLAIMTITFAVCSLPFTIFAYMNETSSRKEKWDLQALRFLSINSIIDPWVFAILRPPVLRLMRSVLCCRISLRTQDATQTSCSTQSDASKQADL
Experimental: (§1) The antagonistic activities of the compounds of formula (I) on the EP2 and EP4 receptors are also determined in accordance with the following experimental method.
(§2) Human tumor cell lines expressing endogenously either EP4 or EP2 are used and cAMP accumulation in cells upon PGE2 stimulation is monitored. SF295 glioblastoma cells express high endogenous EP2 and no EP4, whereas BT549 breast cancer cells, express high endogenous EP4 levels and very low EP2 levels.
(§3) As a detection method for cAMP the HTRF (homogeneous time resolved fluorescence) Cisbio kit (HTRF cAMP dynamic 2 kit 20′000 tests Cisbio Cat. #62AM4PEC) was used, which is based on a competitive immunoassay using a Cryptate-labeled anti-cAMP antibody and d2-labeled cAMP. Native cAMP produced by cells or unlabeled cAMP (for the standard curve) compete with exogenously added d2-labeled cAMP (acceptor) for binding to monoclonal anti-cAMP-Eu3+ Cryptate (donor). A FRET signal (Fluorescence Resonance Energy Transfer) is obtained only if the labeled anti-cAMP antibody binds the d2 labelled cAMP, thus the specific signal (i.e. energy transfer) is inversely proportional to the concentration of cAMP in the standard or sample.
(§4) The SF295 cells (NCI/No. 0503170) are detached from culture dishes with a cell dissociation buffer (Invitrogen, 13151-014), and collected in growing medium (GM: RPM1640 (Invitrogen 21875)/10% FCS, 1% Penicilin/streptomycin). Cells are counted washed and resuspended in assay buffer (AB; HBSS, 20 mM HEPES, 0.2% BSA; 2 mM IBMX). 4′000 cells in 5 μl of AB are seeded per well of a small volume 384 well plate (black with flat bottom, Greiner 784076).
Stock solutions of test compounds are made at a concentration of 10 mM in DMSO, and serially diluted in DMSO to concentrations required for inhibition dose response curves (tested concentration range 30 μM-0.4 nM; 30 μM-0.015 nM or 1 μM-0.01 nM).
PGE2 (Cayman 14010, stock solution: 75 μM in DMSO) is used as agonist at 75 nM final concentration, corresponding to EC80.
(§5) Two point five microliters of diluted compounds are transferred into the assay plate. Plate is pre-incubated 45 minutes at room temperature. Subsequently, 2.5 microliters of PGE2 (final conc. 75 nM) are transferred into the assay plate. Plate is incubated 30 minutes at room temperature. Five μl of each donor (anti-cAMP cryptate) and acceptor (cAMP-d2) are added and the plate is incubated another hour at room temperature in the dark and then read using a BMG LABTECH PHERAstar reader (Excitation: 337 nm, Emission: 620 and 665 nm).
(§6) The obtained Delta F (fluorescence) values (665 nm/620 nM) are converted into % cAMP values using the measurements of the cAMP calibrator provided in the kit. For each compound concentration the percentage of cAMP compared to DMSO control value as average±STDEV (each concentration is measured in duplicate) is calculated.
(§7) IC50 values and curves are generated with XLfit software (IDBS) using Dose-Response One Site model 203. When compounds were measured multiple times, mean values are given.

[2] = biological target: T2, EP4 receptor (Homo sapiens, UniProt P35408); assay: hEP4 cAMP assay (BT549 breast cancer cells, HTRF cAMP, PGE2 stimulation); conditions: antagonistic activity, PGE2 6 nM (EC80)
T2 construct: BT549 breast cancer cells, express high endogenous EP4 levels and very low EP2 levels; host or cells: BT549 breast cancer cells
T2 sequence (P35408 whole entry): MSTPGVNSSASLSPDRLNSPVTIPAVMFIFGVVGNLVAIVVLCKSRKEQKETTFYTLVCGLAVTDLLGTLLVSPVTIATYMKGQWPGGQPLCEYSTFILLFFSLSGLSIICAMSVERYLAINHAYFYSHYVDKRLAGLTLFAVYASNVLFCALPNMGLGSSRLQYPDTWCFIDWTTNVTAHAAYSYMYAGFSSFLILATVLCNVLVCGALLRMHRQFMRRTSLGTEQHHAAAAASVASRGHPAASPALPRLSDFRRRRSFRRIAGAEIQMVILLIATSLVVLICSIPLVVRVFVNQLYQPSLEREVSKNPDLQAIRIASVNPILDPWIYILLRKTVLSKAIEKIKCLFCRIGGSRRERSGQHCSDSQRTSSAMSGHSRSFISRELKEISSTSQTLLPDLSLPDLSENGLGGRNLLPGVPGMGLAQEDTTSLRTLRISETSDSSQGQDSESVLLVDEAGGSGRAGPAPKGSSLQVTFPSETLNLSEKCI
Experimental: as §1, §2, §3
as §4, with “BT549” for “SF295”, “0507282)” for “0503170)”, “RPMI1640” for “RPM1640”
Stock solutions of test compounds are made at a concentration of 10 mM in DMSO, and serially diluted in DMSO to concentrations required for inhibition dose response curves (tested concentration range 30 μM-0.4 nM; 30 μM-0.015 nM or 1 uM-0.01 nM).
PGE2 (Cayman 14010, stock solution: 6 μM in DMSO) is used as agonist at 6 nM final concentration, corresponding to EC80.
as §5, with “6” for “75”, “(Excitation:337” for “(Excitation: 337”, “Emission:620” for “Emission: 620”
as §6, with “F(fluorescence)” for “F (fluorescence)”
as §7

[3] = biological target: T3, PTGER4 (EP4) (Homo sapiens, UniProt P35408); assay: hEP4 b-arrestin assay (PathHunter HEK 293 PTGER4 b-arrestin cells); conditions: antagonistic activity, beta-arrestin assay; read-out: hEP4 b-arr IC50
T3 construct: host or cells: HEK 293 (PathHunter PTGER4 b-arrestin cell line)
T3 sequence (P35408 whole entry): as above
In short: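 PathHunter HEK 293 cells expressing ProLink-tagged human EP4 and EA-β-arrestin 2, seeded 24 h before. Compounds (10 μM–2 nM or 1 μM–0.2 nM) preincubated 15 min at 37 °C, then 20 nM PGE2 (EC80) for 120 min at 37 °C. β-gal complementation luminescence read; IC50 from duplicate dose-response curves versus DMSO control.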

[4] = biological target: T4, PTGER2 (EP2) (Homo sapiens, UniProt P43116); assay: hEP2 b-arrestin assay (PathHunter HEK 293 PTGER2 b-arrestin cells); conditions: antagonistic activity, beta-arrestin assay; read-out: hEP2 b-arr IC50
T4 construct: host or cells: HEK 293 (PathHunter PTGER2 b-arrestin cell line)
T4 sequence (P43116 whole entry): as the sequence (P43116 whole entry) above
In short: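 PathHunter HEK293 cells with ProLink-tagged EP2 and EA-β-arrestin 2 preincubated 15 min at 37 °C with compound (10 μM-2 nM or 1 μM-0.2 nM), then stimulated 120 min with 5 μM PGE2 (EC80). β-gal complementation read by chemiluminescence; IC50 from duplicate dose-response versus DMSO.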

| Compound | IC50 [1] [nM] | IC50 [2] [nM] | IC50 [3] [nM] | IC50 [4] [nM] |
| --- | --- | --- | --- | --- |
| Cc1sc2c(C)cc(F)cc2c1CCNc1cc(-c2ccc(-c3cc(O)no3)cc2)ncn1 [Example 81, 5-(4-{6-[2-(5-Fluoro-2,7-dimethyl-benzo[b]thiophen-3-yl)-ethylamino]-pyrimidin-4-yl}-phenyl)-isoxazol-3-ol [tautomeric form: 5-(4-(6-((2-(5-fluoro-2,7-dimethylbenzo[b]thiophen-3-yl)ethyl)amino)pyrimidin-4-yl)phenyl)isoxazol-3(2H)-one]] | 392 | 323 | 202 |  |
| CCCc1cc(-c2cc(NCCc3c(C)sc4c(C)cc(F)cc34)ncn2)cc(F)c1C(=O)O [Example 93, 2-Fluoro-4-{6-[2-(5-fluoro-2,7-dimethyl-benzo[b]thiophen-3-yl)-ethylamino]-pyrimidin-4-yl}-6-propyl-benzoic acid] | 35 | 362 |  | 36 |
| CCOc1cc(-c2cc(NCCc3c(C)sc4c(C)cc(F)cc34)ncn2)sc1CC(=O)OC [Example 95, (3-Ethoxy-5-{6-[2-(5-fluoro-2,7-dimethyl-benzo[b]thiophen-3-yl)-ethylamino]-pyrimidin-4-yl}-thiophen-2-yl)-acetic acid methyl ester] | 647 | 855 | 484 |  |
| CCOc1cc(-c2cc(NCCc3c(C)oc4c(Cl)cccc34)ncn2)ccc1CC(=O)O [Example 108, (4-{6-[2-(7-Chloro-2-methyl-benzofuran-3-yl)-ethylamino]-pyrimidin-4-yl}-2-ethoxy-phenyl)-acetic acid] | 107 | 264 |  | 31 |
| CCOc1cc(-c2cc(NCCc3c(C)sc4c(C)ccc(Cl)c34)ncn2)ccc1CC(=O)O [Example 111, (4-{6-[2-(4-Chloro-2,7-dimethyl-benzo[b]thiophen-3-yl)-ethylamino]-pyrimidin-4-yl}-2-ethoxy-phenyl)-acetic acid] | 561 | 433 | 197 |  |
| CCOc1cc(-c2cc(NCCc3c(C)sc4c(C)cc(F)cc34)ncn2)sc1-c1noc(=O)[nH]1 [Example 159, 3-(3-Ethoxy-5-{6-[2-(5-fluoro-2,7-dimethyl-benzo[b]thiophen-3-yl)-ethylamino]-pyrimidin-4-yl}-thiophen-2-yl)-[1,2,4]oxadiazol-5(4H)-one [tautomeric form: 3-(3-ethoxy-5-(6-((2-(5-fluoro-2,7-dimethylbenzo[b]thiophen-3-yl)ethyl)amino)pyrimidin-4-yl)thiophen-2-yl)-[1,2,4]oxadiazol-5-ol]] | 11 | 5 | 3 |  |
| (4-{6-[2-(4,5-Difluoro-7-methoxy-2-methyl-benzofuran-3-yl)-ethylamino]-pyrimidin-4-yl}-2-ethoxy-phenoxy)-acetic acid [Example 123] | 359 | 219 | 142 |  |

The remaining lines, values ahead:

| IC50 [1] [nM] | IC50 [2] [nM] | IC50 [3] [nM] | IC50 [4] [nM] | Compound |
| --- | --- | --- | --- | --- |
| 11 | 4 | 2 |  | CCOc1cc(-c2cc(NCCc3c(C#N)sc4c(OC)cccc34)ncn2)sc1C(=O)O [Example 27, 5-{6-[2-(2-Cyano-7-methoxy-benzo[b]thiophen-3-yl)-ethylamino]-pyrimidin-4-yl}-3-ethoxy-thiophene-2-carboxylic acid] |
| 20 | 306 |  | 13 | Cc1sc2c(C)cc(F)cc2c1CCNc1cc(-c2cc3ccc(C(=O)O)cc3[nH]2)ncn1 [Example 80, 2-{6-[2-(5-Fluoro-2,7-dimethyl-benzo[b]thiophen-3-yl)-ethylamino]-pyrimidin-4-yl}-1H-indole-6-carboxylic acid] |
| 92 | 302 |  | 45 | Cc1sc2c(C)cc(F)cc2c1CCNc1cc(-c2ccc(C(=O)O)c(CC(C)C)c2)ncn1 [Example 94, 4-{6-[2-(5-Fluoro-2,7-dimethyl-benzo[b]thiophen-3-yl)-ethylamino]-pyrimidin-4-yl}-2-isobutyl-benzoic acid] |
| 396 | 247 | 159 |  | CCOc1cc(-c2cc(NCCc3c(C)oc4c(OC)cc(Cl)cc34)ncn2)ccc1CC(=O)O [Example 106, (4-{6-[2-(5-Chloro-7-methoxy-2-methyl-benzofuran-3-yl)-ethylamino]-pyrimidin-4-yl}-2-ethoxy-phenyl)-acetic acid] |
| 284 | 765 | 209 |  | CCOc1cc(-c2cc(NCCc3c(C)sc4c(Cl)cc(F)cc34)ncn2)ccc1CC(=O)O [Example 113, (4-{6-[2-(7-Chloro-5-fluoro-2-methyl-benzo[b]thiophen-3-yl)-ethylamino]-pyrimidin-4-yl}-2-ethoxy-phenyl)-acetic acid] |
| 477 | 781 | 246 |  | CCOc1cc(-c2cc(NCCc3c(C)sc4c(Cl)ccc(Cl)c34)ncn2)ccc1CC(=O)O [Example 114, (4-{6-[2-(4,7-Dichloro-2-methyl-benzo[b]thiophen-3-yl)-ethylamino]-pyrimidin-4-yl}-2-ethoxy-phenyl)-acetic acid] |
| 115 | 310 |  | 26 | CCOc1cc(-c2cc(NCCc3c(C)oc4c(C)cc(F)cc34)ncn2)ccc1OCC(=O)O [Example 124, (2-Ethoxy-4-{6-[2-(5-fluoro-2,7-dimethyl-benzofuran-3-yl)-ethylamino]-pyrimidin-4-yl}-phenoxy)-acetic acid] |
| 76 | 271 |  | 13 | CCOc1cc(-c2cc(NCCc3c(C)sc4c(C)cc(F)cc34)ncn2)ccc1NC(=O)C(=O)O [Example 145, N-(2-Ethoxy-4-{6-[2-(5-fluoro-2,7-dimethyl-benzo[b]thiophen-3-yl)-ethylamino]-pyrimidin-4-yl}-phenyl)-oxalamic acid] |
